Laboratory results published in the supplement of paper PMC10307832.

What was measured:
Test in all cases: relative viability (nuclei count vs DMSO), 5 days (fraction); higher = more cells survive
201T = tested on: 201T
Summary of the method: (§1)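 Lung cancer cell lines in 1536-well plates got either a single drug or a fixed anchor-drug dose together with five library-drug doses (not always all listed) in √10 steps, by pin tool, on the day after seeding. Nuclei were counted after 5 days, and relative viability is the treated-to-vehicle ratio of nuclei counts. Values are medians of duplicate plates.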

ABC-1 = tested on: ABC-1
Summary of the method: as §1

BEN = tested on: BEN
Summary of the method: as §1

HCC-366 = tested on: HCC-366
Summary of the method: as §1

HCC-44 = tested on: HCC-44
Summary of the method: as §1

HCC-78 = tested on: HCC-78
Summary of the method: as §1

LOU-NH91 = tested on: LOU-NH91
Summary of the method: as §1

NCI-H1355 = tested on: NCI-H1355
Summary of the method: as §1

NCI-H1650 = tested on: NCI-H1650
Summary of the method: as §1

NCI-H1666 = tested on: NCI-H1666
Summary of the method: as §1

NCI-H1734 = tested on: NCI-H1734
Summary of the method: as §1

NCI-H1755 = tested on: NCI-H1755
Summary of the method: as §1

NCI-H2009 = tested on: NCI-H2009
Summary of the method: as §1

NCI-H2228 = tested on: NCI-H2228
Summary of the method: as §1

NCI-H2347 = tested on: NCI-H2347
Summary of the method: as §1

NCI-H2405 = tested on: NCI-H2405
Summary of the method: as §1

NCI-H520 = tested on: NCI-H520
Summary of the method: as §1

NCI-H727 = tested on: NCI-H727
Summary of the method: as §1

NCI-H838 = tested on: NCI-H838
Summary of the method: as §1

SW 1573 = tested on: SW 1573
Summary of the method: as §1

UMC-11 = tested on: UMC-11
Summary of the method: as §1

Cc1cnc(-c2cnc(NCCNc3ccc(C#N)cn3)nc2-c2ccc(Cl)cc2Cl)[nH]1 + CC(C)C[C@H](NC(=O)[C@H](Cc1ccccc1)NC(=O)c1cnccn1)B(O)O [Bortezomib] (partner 0.002 µM)
relative viability (201T; first compound 0.08 µM): 1.12 | relative viability (201T; first compound 0.253 µM): 0.973 | relative viability (201T; first compound 0.8 µM): 1.14 | relative viability (201T; first compound 2.53 µM): 1.1 | relative viability (ABC-1; first compound 0.08 µM): 0.343 | relative viability (ABC-1; first compound 0.253 µM): 0.257 | relative viability (ABC-1; first compound 0.8 µM): 0.347 | relative viability (ABC-1; first compound 2.53 µM): 0.252 | relative viability (BEN; first compound 0.08 µM): 0.623 | relative viability (BEN; first compound 0.253 µM): 0.786 | relative viability (BEN; first compound 0.8 µM): 0.725 | relative viability (BEN; first compound 2.53 µM): 0.797 | relative viability (HCC-366; first compound 0.08 µM): 1.09 | relative viability (HCC-366; first compound 0.253 µM): 0.989 | relative viability (HCC-366; first compound 0.8 µM): 0.967 | relative viability (HCC-366; first compound 2.53 µM): 1.01 | relative viability (HCC-44; first compound 0.08 µM): 0.851 | relative viability (HCC-44; first compound 0.253 µM): 0.855 | relative viability (HCC-44; first compound 0.8 µM): 0.91 | relative viability (HCC-44; first compound 2.53 µM): 0.932 | relative viability (HCC-78; first compound 0.08 µM): 0.645 | relative viability (HCC-78; first compound 0.253 µM): 0.457 | relative viability (HCC-78; first compound 0.8 µM): 0.443 | relative viability (HCC-78; first compound 2.53 µM): 0.41 | relative viability (LOU-NH91; first compound 0.08 µM): 0.488 | relative viability (LOU-NH91; first compound 0.253 µM): 0.519 | relative viability (LOU-NH91; first compound 0.8 µM): 0.491 | relative viability (LOU-NH91; first compound 2.53 µM): 0.491 | relative viability (NCI-H1355; first compound 0.08 µM): 1.29 | relative viability (NCI-H1355; first compound 0.253 µM): 0.961 | relative viability (NCI-H1355; first compound 0.8 µM): 1.04 | relative viability (NCI-H1355; first compound 2.53 µM): 1.15 | relative viability (NCI-H1650; first compound 0.08 µM): 0.207 | relative viability (NCI-H1650; first compound 0.253 µM): 0.214 | relative viability (NCI-H1650; first compound 0.8 µM): 0.24 | relative viability (NCI-H1650; first compound 2.53 µM): 0.207 | relative viability (NCI-H1666; first compound 0.08 µM): 0.824 | relative viability (NCI-H1666; first compound 0.253 µM): 0.857 | relative viability (NCI-H1666; first compound 0.8 µM): 0.764 | relative viability (NCI-H1666; first compound 2.53 µM): 0.886 | relative viability (NCI-H1734; first compound 0.08 µM): 0.942 | relative viability (NCI-H1734; first compound 0.253 µM): 0.897 | relative viability (NCI-H1734; first compound 0.8 µM): 0.87 | relative viability (NCI-H1734; first compound 2.53 µM): 0.734 | relative viability (NCI-H1755; first compound 0.08 µM): 1.02 | relative viability (NCI-H1755; first compound 0.253 µM): 0.889 | relative viability (NCI-H1755; first compound 0.8 µM): 0.828 | relative viability (NCI-H1755; first compound 2.53 µM): 0.994 | relative viability (NCI-H2009; first compound 0.08 µM): 1.02 | relative viability (NCI-H2009; first compound 0.253 µM): 0.682 | relative viability (NCI-H2009; first compound 0.8 µM): 1.07 | relative viability (NCI-H2009; first compound 2.53 µM): 0.891 | relative viability (NCI-H2228; first compound 0.08 µM): 1.04 | relative viability (NCI-H2228; first compound 0.253 µM): 0.879 | relative viability (NCI-H2228; first compound 0.8 µM): 0.986 | relative viability (NCI-H2228; first compound 2.53 µM): 0.912 | relative viability (NCI-H2347; first compound 0.08 µM): 0.812 | relative viability (NCI-H2347; first compound 0.253 µM): 0.914 | relative viability (NCI-H2347; first compound 0.8 µM): 1.16 | relative viability (NCI-H2347; first compound 2.53 µM): 1.13 | relative viability (NCI-H2405; first compound 0.08 µM): 0.68 | relative viability (NCI-H2405; first compound 0.253 µM): 1.02 | relative viability (NCI-H2405; first compound 0.8 µM): 0.967 | relative viability (NCI-H2405; first compound 2.53 µM): 0.98 | relative viability (NCI-H520; first compound 0.08 µM): 0.72 | relative viability (NCI-H520; first compound 0.253 µM): 0.551 | relative viability (NCI-H520; first compound 0.8 µM): 0.473 | relative viability (NCI-H520; first compound 2.53 µM): 0.523 | relative viability (NCI-H727; first compound 0.08 µM): 0.877 | relative viability (NCI-H727; first compound 0.253 µM): 0.808 | relative viability (NCI-H727; first compound 0.8 µM): 0.982 | relative viability (NCI-H727; first compound 2.53 µM): 0.889 | relative viability (NCI-H838; first compound 0.08 µM): 0.853 | relative viability (NCI-H838; first compound 0.253 µM): 0.757 | relative viability (NCI-H838; first compound 0.8 µM): 0.889 | relative viability (NCI-H838; first compound 2.53 µM): 0.99 | relative viability (SW 1573; first compound 0.08 µM): 1.09 | relative viability (SW 1573; first compound 0.253 µM): 0.899 | relative viability (SW 1573; first compound 0.8 µM): 1.13 | relative viability (SW 1573; first compound 2.53 µM): 0.925 | relative viability (UMC-11; first compound 0.08 µM): 0.759 | relative viability (UMC-11; first compound 0.253 µM): 0.595 | relative viability (UMC-11; first compound 0.8 µM): 0.516 | relative viability (UMC-11; first compound 2.53 µM): 0.659
